Measured values published in patent US6521456B1, “Cellular transport system for the transfer of a nucleic acid through the nuclear envelope and methods thereof” (priority 1999, dated 2003).

Test system: promoter of the ampicillin resistance gene (expression vector DNA)
Experiment: Binding of PNA-peptide-hybrids to double stranded vector DNA (inhibition of Earl cleavage at the PNA binding site)
Settings: 25 μM PNA-peptide-hybrid, 100 ng vector
Experimental: 100 ng expression vector were incubated in TE (pH 7,8) with 25 μM of different PNA-peptide-hybrids at either 65° C. or 37° C. for five minutes to three hours. The PNA-sequence NH2-CTCTTCCTTTTTC-COOH (SEQ ID NO: 6) used here, binds to the promoter of the ampicillin resistance gene.
At the C-terminus either a peptide of 21 amino acids (Peptide 1) or 27 amino acids (Peptide 2) or a spacer of 10 AEEA-units (Fmoc-AEEA-OH Spacer, PerSeptive Biosystems Inc., Framingham, USA) followed by 27 amino acids (Peptide 3) is located. The binding assays were subsequently incubated with restriction endonuclease Earl. Restricted DNA was stained with YOYO (Molecular Probes, Inc., Eugene, Oreg., USA) separated on an agarose gel and quantified with a fluorescence scanner (Image Plate Reader FLA 2000, analysis software L-Process, version 1.6, Fuji Photo Film Co., Ltd., Tokio). Cleavage of DNA by restriction endonuclease Earl is inhibited at the PNA binding site. Additional Earl restriction sites serve as internal control of the reaction.

Row | Substance | Portion of peptide-labelled DNA shown as percentage of input DNA (37 °C, 60 min) [%] | Portion of peptide-labelled DNA shown as percentage of input DNA (37 °C, 120 min) [%] | Portion of peptide-labelled DNA shown as percentage of input DNA (37 °C, 180 min) [%] | Portion of peptide-labelled DNA shown as percentage of input DNA (65 °C, 5 min) [%] | Portion of peptide-labelled DNA shown as percentage of input DNA (65 °C, 10 min) [%] | Portion of peptide-labelled DNA shown as percentage of input DNA (65 °C, 15 min) [%]
1 | H-GKPSSDDEATADSQHSTPPKKKRKVED-OH [Peptide 2] | 90 | 91 | 94 | 96 | 97 | 97
2 | NH2-(AEEA)10-GKPSSDDEATADSQHSTPPKKKRKVED-COOH [Peptide 3] | 74 | 76 | 90 | 91 | 95 | 95
3 | H-GKPTADDQHSTPPKKKRKVED-OH [Peptide 1] | 85 | 91 | 94 | 94 | 96 | 96
